Results reported in ChEMBL document CHEMBL3988181, “GlaxoSmithKline Published Kinase Inhibitor Set 2 Onchocerca lienalis Screening Data”.

Assay: GSK PKIS2: Screen against O. lienalis microfilariae, single point, at 3.1uM to assess reduction in motility. Compounds were also tested for cytotoxicity against Rhesus Monkey LLCMK2 cells.
Type: functional, Onchocerca lienalis, LLC-MK2
Settings: CELL_LINE LLCMK2; CELL_SUPPLIER ECACC; CONC 3.1 uM; ORGANISM_SUPPLIER Extracted from peri-umbilical skin obtained from naturally infected cattle in the UK; temperature 37 degree C

For `Cc1ccc(NC(=O)Nc2ccccc2)cc1-c1ccc(C(=O)Nc2ccncc2)cc1`, the “MOTILITY REDUCTION/CYTOTOXICITY” value was 100%.

In the case of `CC(C)(C)n1cnc2c(N)ncnc21`, the “MOTILITY REDUCTION/CYTOTOXICITY” value is reported as 0%.

In the case of `O=c1[nH]ccc2nc(N[C@@H]3CCNC3)nc(Nc3cc(Cl)cc(Cl)c3)c12`, the “MOTILITY REDUCTION/CYTOTOXICITY” value is reported as 100%.

For `CC(C)c1nc(-c2ccc(F)c(NS(=O)(=O)c3c(F)cccc3F)c2)c(-c2ccnc(Nc3ccc(N4CCOCC4)nc3)n2)s1`, the “MOTILITY REDUCTION/CYTOTOXICITY” value was 0%.

With `CN(c1ccc2c(c1)nc(NCc1ccc(F)cc1)n2C)c1ccnc(Nc2ccc(CS(C)(=O)=O)cc2)n1` the “MOTILITY REDUCTION/CYTOTOXICITY” value was 0%.

For `COc1cccc(-c2ccc3c(NC(=O)C4CC4)n[nH]c3n2)c1`, the “MOTILITY REDUCTION/CYTOTOXICITY” value was 20%.

In the case of `c1ccc(Oc2ccc(Nc3ccnc4cc(-c5ccc(CN6CCCCC6)o5)ccc34)cc2)nc1`, the “MOTILITY REDUCTION/CYTOTOXICITY” value is reported as 20%.

With `Fc1ccc(-c2ncn(CCCN3CCOCC3)c2-c2ccccn2)cc1` the “MOTILITY REDUCTION/CYTOTOXICITY” value was 13.4%.

In the case of `N#Cc1cnc2cc(-c3cnc(CNCCN4CCOCC4)s3)ccc2c1Nc1ccc(Oc2ccccc2)cc1`, the “MOTILITY REDUCTION/CYTOTOXICITY” value is reported as 16.7%.

For `Nc1cccc(-c2ccc3c(N)n[nH]c3c2)c1`, the “MOTILITY REDUCTION/CYTOTOXICITY” value was 33.4%.

In the case of `COc1cccc2c(-c3ccncc3)c(-c3ccc(F)cc3)nn12`, the “MOTILITY REDUCTION/CYTOTOXICITY” value is reported as 66.7%.

With `Cc1ccc(NC(=O)c2ccc(Cl)cc2)cc1-c1ccc(C(=O)Nc2ccncc2)cc1` the “MOTILITY REDUCTION/CYTOTOXICITY” value was 66.7%.

In the case of `C[C@@H]1CCCCN1c1cc(-c2ccc3c(N)n[nH]c3c2)nc(N)n1`, the “MOTILITY REDUCTION/CYTOTOXICITY” value is reported as 13.4%.

In the case of `CCC(CC)(CC)n1cnc2c(N)ncnc21`, the “MOTILITY REDUCTION/CYTOTOXICITY” value is reported as 0%.

With `NS(=O)(=O)CCc1cccc(Nc2nccc(-c3c(-c4cccc(NC(=O)c5c(F)cccc5F)c4)nn4ccccc34)n2)c1` the “MOTILITY REDUCTION/CYTOTOXICITY” value was 33.4%.

In the case of `Cc1cc(-c2ccnc(Nc3cccc(C#N)c3)n2)cc(C)c1O`, the “MOTILITY REDUCTION/CYTOTOXICITY” value is reported as 0%.

In the case of `COc1cccc(CNC(=O)NC2CCN(c3ccnc(Nc4ccc(F)cc4)n3)C2)c1` (stereo not given), the “MOTILITY REDUCTION/CYTOTOXICITY” value is reported as 33.4%.

For `COC(=O)C(NC(=O)NC1CCN(c2ccnc(Nc3ccc(F)cc3)n2)C1)c1ccccc1` (stereo not given), the “MOTILITY REDUCTION/CYTOTOXICITY” value was 0%.

With `Cc1c(O)cccc1Nc1ccnc2ccc(C(F)(F)F)cc12` the “MOTILITY REDUCTION/CYTOTOXICITY” value was 40%.

In the case of `CN(c1ccc(NC(=O)Nc2cc(C(F)(F)F)ccc2F)cc1)c1ccnc(Nc2ccc(S(N)(=O)=O)cc2)n1`, the “MOTILITY REDUCTION/CYTOTOXICITY” value is reported as 100%.

In the case of `COc1ccccc1C1=C(Nc2cccc(O)c2)C(=O)NC1=O`, the “MOTILITY REDUCTION/CYTOTOXICITY” value is reported as 100%.

With `c1ccc(Cn2ncc3cc(Nc4ncnc5ccccc45)ccc32)cc1` the “MOTILITY REDUCTION/CYTOTOXICITY” value was 0%.

With `Cc1ccc2c(-c3ccnc(Nc4ccc(C(F)(F)F)cc4)n3)cnn2n1` the “MOTILITY REDUCTION/CYTOTOXICITY” value was 0%.

In the case of `Clc1ccc(-c2nn3ncccc3c2-c2ccnc(Nc3ccc4c(c3)OCCO4)n2)cc1`, the “MOTILITY REDUCTION/CYTOTOXICITY” value is reported as 0%.

With `c1ccc(-c2n[nH]cc2Nc2ccnc3ccccc23)nc1` the “MOTILITY REDUCTION/CYTOTOXICITY” value was 100%.

In the case of `Cc1ccc(NC(=O)c2ccc(Cl)c(Cl)c2)cc1-c1ccc(C(=O)Nc2ccncc2)cc1`, the “MOTILITY REDUCTION/CYTOTOXICITY” value is reported as 26.7%.

For `O=C(Nc1cccc(-c2nn3ncccc3c2-c2ccnc(Nc3cccc(C(F)(F)F)c3)n2)c1)c1c(F)cccc1F`, the “MOTILITY REDUCTION/CYTOTOXICITY” value was 0%.

For `O=C(Nc1[nH]nc2cc(-c3cccc(F)c3F)ccc12)C1CC1`, the “MOTILITY REDUCTION/CYTOTOXICITY” value was 0%.

In the case of `Cc1cc(-c2ccc3c(c2)CC[C@@H](N[C@@H](C)c2ccccc2)C3)cnc1N`, the “MOTILITY REDUCTION/CYTOTOXICITY” value is reported as 33.4%.

In the case of `O=C1NC(=O)C(c2ccc(Cl)cc2)=C1Nc1cccc(C(=O)O)c1`, the “MOTILITY REDUCTION/CYTOTOXICITY” value is reported as 0%.

In the case of `O=C(NCCNc1ccnc(Nc2ccc(F)cc2)n1)Nc1ccc2c(c1)OCO2`, the “MOTILITY REDUCTION/CYTOTOXICITY” value is reported as 0%.

With `N#Cc1ccc(CCNc2nccc(-c3cccc(CN4CCNCC4)c3)n2)cc1` the “MOTILITY REDUCTION/CYTOTOXICITY” value was 0%.

With `Clc1cc(Cl)cc(Nc2ccnc(Nc3cc(Cl)cc(Cl)c3)n2)c1` the “MOTILITY REDUCTION/CYTOTOXICITY” value was 86.7%.

With `NC(=O)c1cccc(Nc2nccc(Nc3ccc(Oc4cccc(Cl)c4)c(Cl)c3)n2)c1` the “MOTILITY REDUCTION/CYTOTOXICITY” value was 20%.

For `NC[C@H](Cc1ccc(C(F)(F)F)cc1)NC(=O)c1cc(Br)c(-c2ccnc3[nH]ccc23)s1`, the “MOTILITY REDUCTION/CYTOTOXICITY” value was 0%.

For `CC(C)c1cc(-c2ccc3c(N)n[nH]c3c2)nc(N)n1`, the “MOTILITY REDUCTION/CYTOTOXICITY” value was 0%.

In the case of `Nc1ncnc2c1ncn2-c1ccc(Cl)cc1`, the “MOTILITY REDUCTION/CYTOTOXICITY” value is reported as 60%.

With `O=C1NC(=O)C(c2ccccc2)=C1Nc1ccc(Cl)c(C(=O)O)c1` the “MOTILITY REDUCTION/CYTOTOXICITY” value was 0%.

For `NC[C@H](CC1CCCCC1)NC(=O)c1cc(Br)c(-c2ccnc3[nH]ccc23)s1`, the “MOTILITY REDUCTION/CYTOTOXICITY” value was 0%.

For `COc1cc2c(Nc3ccc(NC(=O)c4ccccc4)cc3)ncnc2cc1OCCCN1CCOCC1`, the “MOTILITY REDUCTION/CYTOTOXICITY” value was 0%.

With `COC(=O)c1cccc(NC(=O)NC2CCN(c3ccnc(Nc4ccc(F)cc4)n3)C2)c1` (stereo not given) the “MOTILITY REDUCTION/CYTOTOXICITY” value was 0%.

With `CS(=O)(=O)CCNCc1nc(-c2ccc3ncnc(Nc4ccc(OCc5ccccc5)c(Cl)c4)c3c2)cs1` the “MOTILITY REDUCTION/CYTOTOXICITY” value was 0%.

With `C[C@@H](Oc1cc(-n2cnc3ccc(NC(=O)NC(C)(C)C)cc32)sc1C(N)=O)c1ccccc1Cl` the “MOTILITY REDUCTION/CYTOTOXICITY” value was 60%.

For `Cc1occc1-c1nc(N)c(OC[C@@H](N)Cc2c[nH]c3ccccc23)cc1-c1cc2c(C)n[nH]c2cn1`, the “MOTILITY REDUCTION/CYTOTOXICITY” value was 0%.

In the case of `Cc1cccc(Nc2nc(NCCN)ncc2C(N)=O)c1`, the “MOTILITY REDUCTION/CYTOTOXICITY” value is reported as 0%.
